Experimental data published in PubChem BioAssay (NCI).
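Cultured in 96-well plates, cells were exposed to test compound for 48 hours across five concentrations. Here, GI50 denotes the concentration required for 50% inhibition of growth. TGI: total growth inhibition.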

Legend:
Assay in all cases: growth of human tumour cells (NCI), 48 h
SW-620 colon = test system: SW-620 colon
SK-MEL-28 melanoma = test system: SK-MEL-28 melanoma
DU-145 prostate = test system: DU-145 prostate
NCI-H460 lung = test system: NCI-H460 lung
SN12C renal = test system: SN12C renal
RXF 393 renal = test system: RXF 393 renal
OVCAR-5 ovarian = test system: OVCAR-5 ovarian
MDA-MB-231 breast = test system: MDA-MB-231 breast
SF-539 CNS = test system: SF-539 CNS
HCC-2998 colon = test system: HCC-2998 colon

Row | SMILES | GI50 (SW-620 colon) [µM] | TGI (SW-620 colon) [µM] | GI50 (SK-MEL-28 melanoma) [µM] | TGI (SK-MEL-28 melanoma) [µM] | GI50 (DU-145 prostate) [µM] | TGI (DU-145 prostate) [µM] | GI50 (NCI-H460 lung) [µM] | TGI (NCI-H460 lung) [µM] | GI50 (SN12C renal) [µM] | TGI (SN12C renal) [µM] | GI50 (RXF 393 renal) [µM] | TGI (RXF 393 renal) [µM] | GI50 (OVCAR-5 ovarian) [µM] | TGI (OVCAR-5 ovarian) [µM] | GI50 (MDA-MB-231 breast) [µM] | TGI (MDA-MB-231 breast) [µM] | GI50 (SF-539 CNS) [µM] | TGI (SF-539 CNS) [µM] | GI50 (HCC-2998 colon) [µM] | TGI (HCC-2998 colon) [µM]
1 | COc1cc2c3c(n(CCCN=[N+]=[N-])c(=O)c2cc1OC)-c1ccc(NC(C)=O)cc1C3=O | > 50 | > 50 | > 50 | > 50 | > 50 | > 50 | 8.97 | > 50 | > 50 | > 50 | > 50 | > 50 | > 50 | > 50 | > 50 | > 50 | > 50 | > 50 | > 50 | > 50
2 | COc1ccccc1C(=O)Nc1ccc(Cl)c(C(=O)OC(C)C)c1 |  | > 100 |  | > 94.5 |  | > 100 |  | > 100 |  | > 100 |  | > 100 |  | > 83.4 |  | > 100 |  | > 100 |  | > 100
3 | COc1ccc2cn3c4ccc(O)cc4[nH]c(=O)c3c2c1 | 0.047 | 13.7 | 0.0742 | 17.3 | 0.298 | 15.5 | 0.114 | 10.8 | 0.267 | 16.2 | 0.0447 | 1.04 | 2.72 | 21.5 | 0.434 | 14.8 | 0.104 | 12.5 | 0.301 | 6.75
4 | O=C(Oc1c(Cl)c(Cl)c(Cl)c(Cl)c1Cl)C1CCCN1C(=O)OCc1ccccc1 (stereo unspecified) | 3.44 | 14.4 | 7.45 | 22.1 | 4.49 | 20 | 3.29 | 10.6 | 3.24 | 12.5 | 3.94 | 15.4 | 4.28 | 17.1 | 2.42 | 6.6 | 2.63 | 9.56 | 4.36 | 14.9
5 | Cn1c(=S)c2[nH]c(SCc3cccnc3)nc2n(C)c1=O |  | > 100 |  | > 100 |  | > 100 |  | > 100 |  | > 100 |  | > 100 |  | > 100 |  | > 100 |  | > 100 |  | > 100
6 | CCN(CC)CCC(CNc1c(C)cnc2cc(Cl)ccc12)c1ccc(Cl)c(Cl)c1 (stereo unspecified) | 2.14 | 7 | 1.97 | 3.83 | 9.2 | 22 | 2.63 | 10.7 | 7.67 | 23.7 | 2.86 | 11.4 | 4.62 | 18.9 | 2.43 | 7.06 | 1.77 | 3.52 | 1.77 | 3.36
7 | COc1ccc(C(=O)c2cc(C)c(OC)c(C)c2)c(OC)c1OC(=O)C(Cl)Cl | 0.0377 | > 100 | 0.0632 | > 100 | 0.0377 | 4.8 | 0.0629 | 3.27 | 0.0956 | > 100 | 0.257 | > 100 | 5.51 | > 100 | 0.075 | > 100 | 0.0238 | 0.0702 | 0.178 | > 23.6
8 | NC1=C(/C(N)=N/O)C(c2ccccc2)c2ccc3ccccc3c2O1 (stereo unspecified) | 0.243 | > 100 | 11.3 | 51 | 0.463 | > 37.2 | 0.341 | 16.1 | 0.603 | 31 | 0.249 | 0.929 | 1.19 | > 100 | 0.988 | 24.5 | 0.242 | 0.885 | 0.729 | 15.8
9 | CC(=O)OCCC/C(=C/c1cc2ccccc2c2ccccc12)[N+](=O)[O-] | 1.49 | 2.81 | 1.64 | 2.99 | 1.26 | 2.51 | 1.71 | 3.14 | 1.75 | 3.75 | 1.4 | 2.91 | 1.68 | 3.11 | 1.78 | 4.3 | 1.53 | 2.86 | 1.64 | 3
10 | COc1cc(NC(=O)c2cc3ccccc3cc2O)c(OC)cc1Cl | 3.08 | > 34.5 | 2.86 | 10.7 | 2.67 | 8.07 | 1.9 | 4.91 | 1.87 | 6.36 | 2.24 | 8.01 | 2.25 | 10.6 | 1.57 | 4.79 | 2.31 | 7.15 | 2.68 | 7.72
11 | CCN(CC)CCOc1ccccc1-n1c(C)ccc1-c1ccccc1 | 15.2 | 31.8 | 15.7 | 29.7 | 17.3 | 32.3 | 18.2 | 38 | 15.4 | 30.5 | 5.31 | 20.1 | 15.7 | 30.1 | 6.54 | 20.7 | 16.1 | 31 | 13.9 | 28.5
12 | CC(NNC(=S)N1CCN(c2ccccn2)CC1)c1cccc[n+]1[O-] (stereo unspecified) |  | > 100 |  | > 100 |  | > 100 |  | > 100 |  | > 100 |  | > 100 |  |  |  | > 100 |  | 84.2 |  | > 100
13 | CSc1ccc(NC(=O)CCl)cc1 |  | > 10 |  | > 10 |  | > 10 |  | > 10 |  | > 10 |  | > 10 |  | > 10 |  | > 10 |  | > 10 |  | 7.19
14 | COC(=O)[C@]12CC[C@@H](C)[C@H](C)[C@@H]1C1=CC[C@@H]3[C@@]4(C)C(C=O)=C[C@@](C)(COC(=O)c5ccco5)C4=CC[C@@]3(C)[C@]1(C)CC2 | 3.1 | 11.2 | 0.053 | 3.01 | 3.81 | 15.9 | 2.66 | 7.61 | 4.04 | > 100 | 1.7 | 3.77 | 2.32 | 6.99 | 2.73 | 9.47 | 2.57 | 6.94 | 2.76 | 7.17
15 | COc1ccc(-n2nc(C(=O)NCC(=O)Nc3nc4cc(OC)ccc4s3)c3ccccc3c2=O)cc1 | 0.66 | > 100 | 0.631 | 2.3 | 0.919 |  | 0.556 |  | 3.45 | > 40.7 | 0.698 | 2.07 | 2.32 | > 20.7 | 1.49 | 4.46 | 0.407 | 1.27 | 0.589 | 7.89
16 | COc1cc(-c2cn(-c3ccc(F)cc3)c(=O)[nH]2)cc(OC)c1OC | > 100 | > 100 | > 100 | > 100 | > 100 | > 100 | > 100 | > 100 | 9.93 | > 100 | > 100 | > 100 | > 100 | > 100 | > 100 | > 100 | > 100 | > 100 | > 100 | > 100
17 | COC(=O)C(Br)(C(=O)OC)C(Br)C(Br)C(Br)c1ccccc1 (stereo unspecified) | 1.64 | 3.07 | 2.12 | 4.99 | 2.31 | 5.71 | 17.2 | 32.3 | 2.16 | 5.3 | 1.72 | 3.26 | 3.3 | 13 | 3.11 | 9.71 | 1.81 | 4.09 | 17.5 | 32
18 | CCCCc1n(Cc2ccc3ccccc3n2)cc[n+]1Cc1ccc2ccccc2c1 | 1.31 | 4.75 | 0.798 | 2.59 | 1.44 | 7.98 | 0.917 | 2.95 | 0.685 | 2.21 | 1.22 | 3.16 | 1.54 | 8.48 | 0.635 | 2.04 | 0.916 | 3.05 | 0.641 | 2.01
19 | CCN1C(=O)N[C@H]2[C@@H]3NC(=O)c4ccc(Cl)n4[C@@H]3C[C@]21O | 0.511 | > 100 | 0.311 | 3.03 | 0.615 | 19.3 | 0.395 | 16.6 | 0.42 | 9.13 | 0.333 | 2.69 |  |  | 0.822 | 7.25 | 0.369 | 2.57 | 0.607 | 4.79
20 | CCC1C[N+]2=C(c3cc(OC)c(OC)cc3CC2)c2c1cc1n2CCc2cc(OC)c(OC)cc2-1 (stereo unspecified) | 4.25 | 16.8 | 1.93 | 10.1 | 5.37 | 36.8 | 2.82 | 12.1 | 1.93 | 11.8 | 3.46 | 15.5 | 12.1 | > 100 | 2.27 | 8.44 | 3.34 | 14.9 | 2.55 | 12.9
21 | CCN1Cc2c(/C=C/c3ccccc3)nc3ccc(OC)cc3c2N(c2cccc(Cl)c2)C1 | 1.67 | 3.29 | 1.78 | 3.28 | 1.94 | 3.47 | 1.64 | 3.27 | 2.43 | 7.82 | 2.07 | 3.69 | 1.49 | 2.97 | 1.75 | 3.69 | 1.98 | 3.91 | 1.64 | 3.14
22 | CCOc1cc(CCNC)c2c(ccc3ccc(OC)c(O)c32)c1OC |  |  |  | 37.8 |  | 28.5 |  | 32.9 |  | 36.7 |  | 31.5 |  | 29.5 |  | 28.5 |  |  |  | 30
23 | COc1ccc2c3c1OC1C4(CCC5C(C2)N(CC2CC2)CCC351)OCCO4 (stereo unspecified) |  | > 100 |  | > 100 |  | > 100 |  | > 100 |  | > 100 |  | > 100 |  | > 100 |  | > 100 |  |  |  | > 100
24 | COc1ccccc1N1CCN(CC(O)Cn2c(=O)c3c(OC)nc(C)cc3c(=O)n2-c2ccccc2)CC1 (stereo unspecified) | > 100 | > 100 | > 100 | > 100 | > 100 | > 100 | > 100 | > 100 | > 100 | > 100 |  |  | > 100 | > 100 | 24.3 | > 100 | 32.6 | > 100 | > 100 | > 100
25 | Nc1ccccc1-n1c2c(c3ccccc3c1=O)C(=O)c1ccccc1-2 |  | > 100 |  | > 100 |  | > 100 |  | > 100 |  | > 100 |  |  |  | > 100 |  | > 100 |  | 26.8 |  | > 100
26 | Cc1nc2sc(C(=O)Nc3cccc(Cl)c3C)c(N)c2cc1C(O)c1ccccc1 (stereo unspecified) | 0.0331 | 15.4 | 1.6 | 23.1 | 0.0454 | 8.5 | 0.0347 | 0.486 | 0.067 | 6.73 |  |  | 0.14 | 46.5 | 0.0834 | 6.95 | 0.0253 | 0.0805 | 0.106 | 2.36
27 | O=C1Nc2cc(-c3ccc(O)cc3)ccc2/C1=C/c1ccc[nH]1 | 0.0746 | > 100 | 0.402 | > 100 | 0.815 | > 36.4 |  |  | 0.609 | > 100 | 0.826 | 2.45 | 0.588 | > 25 | 0.154 | 6.66 | 0.246 | 1.53 | 0.511 | > 100
28 | CCSc1nnc(-c2ccc3ccccc3c2O)n1-c1ccccc1 |  |  | > 100 | > 100 | > 100 | > 100 | 3.25 | > 100 | > 100 | > 100 | > 100 | > 100 |  |  | > 100 | > 100 | > 100 | > 100 | > 100 | > 100
